In US12679878B2, “CRF2 receptor agonists and their use in therapy” (SANOFI, priority 2020, dated 2026):
Read-outs that look alike come from different tables or passages of the source. Starred links: 1 amine or outer side, 2 acyl side, 3 side chain; linkers in the order of their positions; H or OH if unused. Non-standard residues stand in square brackets, D forms with d. Residues, ends and D or L forms follow the SMILES beside them. Groups on a side chain read outwards from the residue. *: point of attachment. C18 diacid = O=C(O)CCCCCCCCCCCCCCCCC(=O)*; γGlu = O=C(O)[C@H](CCC(=O)[*:2])N[*:1]; AEEA = NCCOCCOCC(=O)O; Aib = CC(C)(N)C(=O)O

Molecular target: T1, human CRF2α receptor (Homo sapiens, UniProt Q13324)
T1 construct: expressed in transfected cells; host or cells: TeloHEAC
T1 sequence (Q13324 1-411): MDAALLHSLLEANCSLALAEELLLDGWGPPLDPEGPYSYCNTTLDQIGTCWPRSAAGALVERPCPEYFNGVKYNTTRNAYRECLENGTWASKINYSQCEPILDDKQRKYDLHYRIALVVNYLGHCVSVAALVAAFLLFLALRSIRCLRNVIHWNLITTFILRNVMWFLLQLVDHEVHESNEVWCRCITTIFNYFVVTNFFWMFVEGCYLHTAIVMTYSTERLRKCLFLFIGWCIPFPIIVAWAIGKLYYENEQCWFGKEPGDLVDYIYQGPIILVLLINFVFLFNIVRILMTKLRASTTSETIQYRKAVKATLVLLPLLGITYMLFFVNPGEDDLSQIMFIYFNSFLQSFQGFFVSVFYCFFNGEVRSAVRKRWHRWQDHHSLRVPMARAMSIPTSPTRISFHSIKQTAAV
Experiment: cAMP agonism at human CRF2 α receptor in TeloHEAC cells (Example 7)
Assay type: cell-based
Method in brief: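 Percent activation was referenced to 1000 nM UCN2 (100%), and EC50 values taken as concentrations giving half of maximal response. The read-out was a homogeneous time-resolved fluorescence cAMP kit, fluorescence ratio 665/620 nm. Thawed cells (2000/well) saw compound for 30 min at RT in buffer with 2 mM IBMX and 0%/0.1% HSA.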

[1] = cAMP HTRF, TeloHEAC cells stably expressing human CRF2 α, 0% HSA, read-out: EC50 [nM], 0% HSA
[2] = cAMP HTRF, TeloHEAC cells stably expressing human CRF2 α, 0.1% HSA, read-out: EC50 [nM], 0.1% HSA

SMILES | EC50 [1] [nM] | EC50 [2] [nM] | EC50 (EC50 [nM], 0% HSA) [nM] | EC50 (EC50 [nM], 0.1% HSA) [nM]
CC[C@H](C)[C@H](N)C(=O)N[C@H](C(=O)N[C@@H](CC(C)C)C(=O)N[C@@H](CO)C(=O)N[C@@H](CC(C)C)C(=O)N[C@@H](CC(=O)O)C(=O)N[C@H](C(=O)N1CCC[C@H]1C(=O)N[C@H](C(=O)N[C@@H](CCCCN)C(=O)N[C@@H](CC(C)C)C(=O)N[C@@H](CCCCNC(=O)COCCOCCNC(=O)COCCOCCNC(=O)CC[C@H](NC(=O)CCCCCCCCCCCCCCCCC(=O)O)C(=O)O)C(=O)N[C@@H](CCC(N)=O)C(=O)N[C@H](C(=O)N[C@@H](CC(C)C)C(=O)N[C@@H](CC(C)C)C(=O)N[C@@H](CCCCN)C(=O)N[C@@H](CCC(N)=O)C(=O)N[C@@H](CCC(=O)O)C(=O)N[C@@H](CCCNC(=N)N)C(=O)N[C@@H](CCC(N)=O)C(=O)N[C@@H](CCCCN)C(=O)N[C@@H](CCCCN)C(=O)N[C@@H](CCC(N)=O)C(=O)N[C@@H](CCCNC(=N)N)C(=O)N[C@@H](CCC(=O)O)C(=O)N[C@@H](CCC(N)=O)C(=O)N[C@@H](C)C(=O)N[C@@H](CCC(=O)O)C(=O)N[C@@H](CCCCN)C(=O)N[C@@H](CC(N)=O)C(=O)N[C@@H](CCCCN)C(=O)N[C@@H](CCC(N)=O)C(=O)N[C@H](C(=O)N[C@@H](CC(C)C)C(=O)N[C@@H](CCC(=O)O)C(=O)N[C@@H](CCC(N)=O)C(=O)N[C@H](C(N)=O)C(C)C)[C@@H](C)CC)[C@@H](C)CC)[C@@H](C)CC)C(C)C)C(C)C [compound 120] (H-IVLSLDVPIKLK([AEEA-AEEA-γGlu-C18 diacid])QILLKQERQKKQREQAEKNKQILEQV-NH2) | 1.27 | 61.1 |  | 
CC[C@H](C)[C@H](N)C(=O)N[C@H](C(=O)N[C@@H](CC(C)C)C(=O)N[C@@H](CO)C(=O)N[C@@H](CC(C)C)C(=O)N[C@@H](CC(=O)O)C(=O)N[C@@H](C(=O)N1CCC[C@H]1C(=O)N[C@H](C(=O)N[C@@H](CCCCN)C(=O)N[C@@H](CC(C)C)C(=O)N[C@@H](CCCCNC(=O)COCCOCCNC(=O)COCCOCCNC(=O)CC[C@H](NC(=O)CCCCCCCCCCCCCCCCC(=O)O)C(=O)O)C(=O)N[C@@H](CCC(N)=O)C(=O)N[C@H](C(=O)N[C@@H](CC(C)C)C(=O)N[C@@H](CC(C)C)C(=O)N[C@@H](CCC(=O)O)C(=O)N[C@@H](CCC(N)=O)C(=O)N[C@@H](C)C(=O)N[C@@H](CCCCN)C(=O)N[C@@H](CCC(N)=O)C(=O)N[C@@H](CCCCN)C(=O)NC(C)(C)C(=O)N[C@@H](CCC(N)=O)C(=O)N[C@@H](CCCNC(=N)N)C(=O)N[C@@H](CCC(=O)O)C(=O)N[C@@H](CCC(N)=O)C(=O)N[C@@H](C)C(=O)N[C@@H](CCC(=O)O)C(=O)N[C@@H](CCCCN)C(=O)N[C@@H](CC(N)=O)C(=O)N[C@@H](CCCCN)C(=O)N[C@@H](CCCNC(=N)N)C(=O)N[C@H](C(=O)N[C@@H](CC(C)C)C(=O)N[C@@H](CCC(=O)O)C(=O)N[C@@H](CCCNC(=N)N)C(=O)N[C@H](C(N)=O)C(C)C)[C@@H](C)CC)[C@@H](C)CC)[C@@H](C)CC)C(C)C)C(C)C [compound 127] (H-IVLSLD[dV]PIKLK([AEEA-AEEA-γGlu-C18 diacid])QILLEQAKQK[Aib]QREQAEKNKRILERV-NH2; N-terminus assumed) | 0.16 | 5.14 |  | 
CC[C@H](C)[C@H](NC(=O)[C@H](CCC(N)=O)NC(=O)[C@H](CCCCN)NC(=O)[C@H](CC(N)=O)NC(=O)[C@@H](NC(=O)[C@H](CCCCN)NC(=O)[C@H](C)NC(=O)[C@H](CCCCN)NC(=O)[C@H](CCC(N)=O)NC(=O)[C@H](CCCNC(=N)N)NC(=O)[C@H](CCC(N)=O)NC(=O)[C@H](CCCCN)NC(=O)[C@H](CCCCN)NC(=O)[C@H](CCC(N)=O)NC(=O)[C@H](CCCCN)NC(=O)[C@H](CCC(=O)O)NC(=O)[C@H](CCC(N)=O)NC(=O)[C@H](CCCCN)NC(=O)[C@H](CC(C)C)NC(=O)[C@H](CC(C)C)NC(=O)[C@@H](NC(=O)[C@H](CCC(N)=O)NC(=O)[C@H](CCCCNC(=O)COCCOCCNC(=O)COCCOCCNC(=O)CC[C@H](NC(=O)CCCCCCCCCCCCCCCCC(=O)O)C(=O)O)NC(=O)[C@@H](NC(=O)[C@H](CCCCN)NC(=O)[C@@H](NC(=O)[C@@H]1CCCN1C(=O)[C@@H](NC(=O)[C@H](CC(=O)O)NC(=O)[C@H](CC(C)C)NC(=O)[C@H](CO)NC(=O)[C@H](CC(C)C)NC(=O)[C@@H](NC(=O)[C@@H](N)Cc1ccccc1)[C@@H](C)O)C(C)C)[C@@H](C)O)[C@@H](C)CC)[C@@H](C)CC)[C@@H](C)O)C(=O)N[C@@H](CC(C)C)C(=O)N[C@@H](CCC(=O)O)C(=O)N[C@@H](CCCNC(=N)N)C(=O)N[C@H](C(N)=O)C(C)C [compound 143] (H-FTLSLDVPTKIK([AEEA-AEEA-γGlu-C18 diacid])QILLKQEKQKKQRQKAKTNKQILERV-NH2) |  |  | 1.44 | 93.8

Now from value to compound, other results behind:

EC50 [1] [nM] | EC50 [2] [nM] | SMILES | EC50 (EC50 [nM], 0% HSA) [nM] | EC50 (EC50 [nM], 0.1% HSA) [nM]
0.64 | 20.1 | CC[C@H](C)[C@H](N)C(=O)N[C@H](C(=O)N[C@@H](CC(C)C)C(=O)N[C@@H](CO)C(=O)N[C@@H](CC(C)C)C(=O)N[C@@H](CC(=O)O)C(=O)N[C@@H](C(=O)N1CCC[C@H]1C(=O)N[C@H](C(=O)N[C@@H](CCCCN)C(=O)N[C@@H](CC(C)C)C(=O)N[C@@H](CCCCNC(=O)COCCOCCNC(=O)COCCOCCNC(=O)CC[C@H](NC(=O)CCCCCCCCCCCCCCCCC(=O)O)C(=O)O)C(=O)N[C@@H](CCC(N)=O)C(=O)N[C@H](C(=O)N[C@@H](CC(C)C)C(=O)N[C@@H](CC(C)C)C(=O)N[C@@H](CCCCN)C(=O)N[C@@H](CCC(N)=O)C(=O)N[C@@H](C)C(=O)N[C@@H](CCCNC(=N)N)C(=O)N[C@@H](CCC(N)=O)C(=O)N[C@@H](CCCCN)C(=O)NC(C)(C)C(=O)N[C@@H](CCC(N)=O)C(=O)N[C@@H](CCCNC(=N)N)C(=O)N[C@@H](CCC(=O)O)C(=O)N[C@@H](CCC(N)=O)C(=O)N[C@@H](C)C(=O)N[C@@H](CCC(=O)O)C(=O)N[C@@H](CCCCN)C(=O)N[C@@H](CC(N)=O)C(=O)N[C@@H](CCCCN)C(=O)N[C@@H](CCCNC(=N)N)C(=O)N[C@H](C(=O)N[C@@H](CC(C)C)C(=O)N[C@@H](CCC(=O)O)C(=O)N[C@@H](CCCNC(=N)N)C(=O)N[C@H](C(N)=O)C(C)C)[C@@H](C)CC)[C@@H](C)CC)[C@@H](C)CC)C(C)C)C(C)C [compound 128] (H-IVLSLD[dV]PIKLK([AEEA-AEEA-γGlu-C18 diacid])QILLKQARQK[Aib]QREQAEKNKRILERV-NH2; N-terminus assumed) |  | 
0.15 | 3.02 | CC[C@H](C)[C@H](N)C(=O)N[C@H](C(=O)N[C@@H](CC(C)C)C(=O)N[C@@H](CO)C(=O)N[C@@H](CC(C)C)C(=O)N[C@@H](CC(=O)O)C(=O)N[C@@H](C(=O)N1CCC[C@H]1C(=O)N[C@H](C(=O)N[C@@H](CCCCN)C(=O)N[C@@H](CC(C)C)C(=O)N[C@@H](CCCCNC(=O)COCCOCCNC(=O)COCCOCCNC(=O)CC[C@H](NC(=O)CCCCCCCCCCCCCCCCC(=O)O)C(=O)O)C(=O)N[C@@H](CCC(N)=O)C(=O)N[C@H](C(=O)N[C@@H](CC(C)C)C(=O)N[C@@H](CC(C)C)C(=O)N[C@@H](CCC(=O)O)C(=O)N[C@@H](CCC(N)=O)C(=O)N[C@@H](CCC(=O)O)C(=O)N[C@@H](CCCNC(=N)N)C(=O)N[C@@H](CCC(N)=O)C(=O)N[C@@H](CCCCN)C(=O)NC(C)(C)C(=O)N[C@@H](CCC(N)=O)C(=O)N[C@@H](CCCNC(=N)N)C(=O)N[C@@H](CCC(=O)O)C(=O)N[C@@H](CCC(N)=O)C(=O)N[C@@H](C)C(=O)N[C@@H](CCC(=O)O)C(=O)N[C@@H](CCCCN)C(=O)N[C@@H](CC(N)=O)C(=O)N[C@@H](CCCCN)C(=O)N[C@@H](CCC(N)=O)C(=O)N[C@H](C(=O)N[C@@H](CC(C)C)C(=O)N[C@@H](C)C(=O)N[C@@H](CCC(N)=O)C(=O)N[C@H](C(N)=O)C(C)C)[C@@H](C)CC)[C@@H](C)CC)[C@@H](C)CC)C(C)C)C(C)C [compound 129] (H-IVLSLD[dV]PIKLK([AEEA-AEEA-γGlu-C18 diacid])QILLEQERQK[Aib]QREQAEKNKQILAQV-NH2) |  | 
0.09 | 3.19 | CC[C@H](C)[C@H](N)C(=O)N[C@H](C(=O)N[C@@H](CC(C)C)C(=O)N[C@@H](CO)C(=O)N[C@@H](CC(C)C)C(=O)N[C@@H](CC(=O)O)C(=O)N[C@@H](C(=O)N1CCC[C@H]1C(=O)N[C@H](C(=O)N[C@@H](CCCCN)C(=O)N[C@@H](CC(C)C)C(=O)N[C@@H](CCCCNC(=O)COCCOCCNC(=O)COCCOCCNC(=O)CC[C@H](NC(=O)CCCCCCCCCCCCCCCCC(=O)O)C(=O)O)C(=O)N[C@@H](CCC(N)=O)C(=O)N[C@H](C(=O)N[C@@H](CC(C)C)C(=O)N[C@@H](CC(C)C)C(=O)N[C@@H](CCCCN)C(=O)N[C@@H](CCC(N)=O)C(=O)N[C@@H](CCC(=O)O)C(=O)N[C@@H](CCCNC(=N)N)C(=O)N[C@@H](CCC(N)=O)C(=O)N[C@@H](CCCCN)C(=O)NC(C)(C)C(=O)N[C@@H](CCC(N)=O)C(=O)N[C@@H](CCCNC(=N)N)C(=O)N[C@@H](CCC(=O)O)C(=O)N[C@@H](CCC(N)=O)C(=O)N[C@@H](C)C(=O)N[C@@H](CCC(=O)O)C(=O)N[C@@H](CCCCN)C(=O)N[C@@H](CC(N)=O)C(=O)N[C@@H](CCCCN)C(=O)N[C@@H](CCC(N)=O)C(=O)N[C@H](C(=O)N[C@@H](CC(C)C)C(=O)N[C@@H](CCC(=O)O)C(=O)N[C@@H](CCCNC(=N)N)C(=O)N[C@H](C(N)=O)C(C)C)[C@@H](C)CC)[C@@H](C)CC)[C@@H](C)CC)C(C)C)C(C)C [compound 133] (H-IVLSLD[dV]PIKLK([AEEA-AEEA-γGlu-C18 diacid])QILLKQERQK[Aib]QREQAEKNKQILERV-NH2; N-terminus assumed) |  | 
